# Assays:
# rats in endotoxic shock = test: Endotoxic shock induced by E. coli LPS in rats; type: in vivo; details: 0.05 mg/kg after LPS 30 mg/kg iv; one rat, sacrificed at the end of experiment; vehicle rat died after 270 min
# Procedure: FIG. 14 illustrates the efficiency of a low dose of centhaquin citrate in the treatment of septic shock. In the tests summarized in FIG. 14, anaesthetized rats were immobilized on a surgical board and an incision was made above the femoral vein and artery. The vessels were cleaned and isolated. Heart rate and mean arterial pressure were measured by cannulating left femoral artery with pressure transducer SPR-320 (Millar Instruments), connected to a ML221 bridge amplifier (AD Instruments) through AEC-10C connector and the signals were acquired (1000 S^−) using PowerLab 16/30. Left femoral veins were secured for drug administration using PE 50 tubing (Clay Adams, Parsipanny, N.J.). Right femoral artery was cannulated for blood drawings using PE 50 tubing (Clay Adams, Parsipanny, N.J.). After completion of the surgery, animals were maintained in a steady state for 30 minutes before administration of Lipopolysaccharide (LPS). Endotoxic shock was induced by intravenous injection of E. coli LPS O111:B4 (Sigma Chemical, St. Louis, Mo.) dissolved to a concentration of 10 mg in 0.1 ml of normal saline and a dose of 30 mg/kg was administered. Resuscitation (R) was performed either with vehicle (saline) or with centhaquin citrate (0.05 mg/kg). The rat treated with vehicle has lower blood pressure compared to the rat treated with centhaquin. […]
# [1] = tested on: urethane anesthetized rats; test: Cardiovascular effects in urethane anesthetized rats, centhaquin vs centhaquin citrate; type: in vivo, rat; details: 0.05, 0.15, 0.45 mg/kg; 60 minute period; mean blood pressure, pulse pressure, heart rate, cardiac output, stroke volume, stroke work
# Procedure: In these plots, centhaquin is tested as the free base in amounts of 0.05, 0.15, and 0.45 mg/kg. Similarly, centhaquin citrate dihydrate is tested in amounts of 0.05, 0.15, and 0.45 mg/kg. These amounts of centhaquin citrate are equivalent to 0.030, 0.089, and 0.267 mg/kg of centhaquin as the free base.
# α2 adrenergic receptors = test: Centhaquin resuscitation with and without α2 adrenergic antagonists: arterial blood hematocrit, pH, gases, electrolytes, lactate; type: in vivo, rat; details: hemorrhaged rats
# hemorrhaged rats = details: Gill, Pelit et al. 2011; cited from earlier work
structure (smiles),measurement,setting,value
Cc1cccc(N2CCN(CCc3ccc4ccccc4n3)CC2)c1.O=C(O)CC(O)(CC(=O)O)C(=O)O [centhaquin citrate],survival,rats in endotoxic shock,360 min
same,cardiovascular effects compared to centhaquin free base at same mg/kg dose,[1],substantially outperformed centhaquin free base
"COC(=O)[C@@H]1[C@H]2C[C@H]3c4[nH]c5ccccc5c4CCN3C[C@@H]2CC[C@@H]1O [yohimbine, reference compound]",effect of the α2 adrenergic antagonist on the resuscitative effect of centhaquin,α2 adrenergic receptors,completely blocked
"CCC1(c2cnc[nH]2)Cc2ccccc2C1 [atipamezole, reference compound]",effect of the α2 adrenergic antagonist on the resuscitative effect of centhaquin,α2 adrenergic receptors,completely blocked
N=C(N)NCCCCN [Agmatine],resuscitative effect,hemorrhaged rats,effective resuscitation agent
same,resuscitative effect in presence of yohimbine,hemorrhaged rats,completely blocked
